From ChEMBL document CHEMBL3792292, “Development of a potent and selective FLT3 kinase inhibitor by systematic expansion of a non-selective fragment-screening hit” (Bioorg Med Chem Lett, 2016) come the findings set out here.

The target in test [1] is Serine/threonine-protein kinase pim-1 (Homo sapiens) (UniProt P11309). In words: Inhibition of full length human N-terminal His-tagged PIM1 (1 to 313 residues) expressed in baculovirus expression system using fluorescence labelled S6K2 peptide substrate at 50 times IC50 by electrophoretic mobility shift assay relative to control. For orientation: Mobility shift assays separate free from complexed probe on a gel.

In test [2] the target is Tyrosine-protein kinase CSK (Homo sapiens) (UniProt P41240). In words: Inhibition of full length human N-terminal GST-tagged CSK (1 to 450 residues) expressed in baculovirus expression system using fluorescence labelled srctide as substrate at 50 times IC50 by electrophoretic mobility shift assay relative to control.
Test [3] has as its target Fibroblast growth factor receptor 1 (Homo sapiens) (UniProt P11362). Kind of test: Inhibition of human N-terminal GST-tagged FGFR1 cytoplasmic domain (398 to 822 residues) expressed in baculovirus expression system using fluorescence labelled CSKtide as substrate at 50 times IC50 by electrophoretic mobility shift assay relative to control.
Test [4] has as its target Insulin-like growth factor 1 receptor (Homo sapiens) (UniProt P08069). Kind of test: Inhibition of human N-terminal GST-tagged IGF1R cytoplasmic domain (959 to 1367 residues) expressed in baculovirus expression system using fluorescence labelled IRS1 as substrate at 50 times IC50 by electrophoretic mobility shift assay relative to control.
Test [5] has as its target Receptor-type tyrosine-protein kinase FLT3 (Homo sapiens) (UniProt P36888). In words: Inhibition of human N-terminal GST-tagged FLT3 cytoplasmic domain (564 to 993 residues) expressed in baculovirus expression system using fluorescence labelled srctide as substrate at 50 times IC50 by electrophoretic mobility shift assay relative to control.
Test [6] has as its target Glycogen synthase kinase-3 beta (Homo sapiens) (UniProt P49841). Kind of test: Inhibition of full length human N-terminal GST-tagged GSK3beta (1 to 420 residues) expressed in baculovirus expression system using fluorescence labelled CREBtide-p as substrate at 50 times IC50 by electrophoretic mobility shift assay relative to control.
For test [7], the target named is Proto-oncogene tyrosine-protein kinase Src (Homo sapiens) (UniProt P12931). Kind of test: Inhibition of full length human N-terminal GST-tagged SRC (1 to 536 residues) expressed in baculovirus expression system using fluorescence labelled srctide as substrate at 50 times IC50 by electrophoretic mobility shift assay relative to control.
In test [8] the target is T1, Serine/threonine-protein kinase 4 (Homo sapiens) (UniProt Q13043).
T1 sequence (whole entry): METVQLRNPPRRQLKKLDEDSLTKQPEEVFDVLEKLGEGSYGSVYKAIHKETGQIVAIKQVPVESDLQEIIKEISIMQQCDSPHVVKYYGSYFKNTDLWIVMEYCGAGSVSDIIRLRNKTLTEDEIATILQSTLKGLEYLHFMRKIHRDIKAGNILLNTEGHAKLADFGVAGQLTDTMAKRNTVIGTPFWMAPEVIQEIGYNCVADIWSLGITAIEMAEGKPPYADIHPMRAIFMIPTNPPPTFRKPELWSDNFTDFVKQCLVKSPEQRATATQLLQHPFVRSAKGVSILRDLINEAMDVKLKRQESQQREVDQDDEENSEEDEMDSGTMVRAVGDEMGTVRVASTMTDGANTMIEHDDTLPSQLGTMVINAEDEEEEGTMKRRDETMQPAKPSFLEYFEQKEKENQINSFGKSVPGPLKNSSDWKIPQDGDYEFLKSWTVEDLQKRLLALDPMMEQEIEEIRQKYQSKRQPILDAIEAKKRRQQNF
Kind of test: Inhibition of full length human N-terminal GST-tagged MST1 (1 to 487 residues) expressed in baculovirus expression system using fluorescence labelled IRS1 as substrate at 50 times IC50 by electrophoretic mobility shift assay relative to control.

Test [9] concerns the target T2, Receptor-type tyrosine-protein kinase FLT3 (Homo sapiens, UniProt P36888).
T2 sequence (P36888 whole entry): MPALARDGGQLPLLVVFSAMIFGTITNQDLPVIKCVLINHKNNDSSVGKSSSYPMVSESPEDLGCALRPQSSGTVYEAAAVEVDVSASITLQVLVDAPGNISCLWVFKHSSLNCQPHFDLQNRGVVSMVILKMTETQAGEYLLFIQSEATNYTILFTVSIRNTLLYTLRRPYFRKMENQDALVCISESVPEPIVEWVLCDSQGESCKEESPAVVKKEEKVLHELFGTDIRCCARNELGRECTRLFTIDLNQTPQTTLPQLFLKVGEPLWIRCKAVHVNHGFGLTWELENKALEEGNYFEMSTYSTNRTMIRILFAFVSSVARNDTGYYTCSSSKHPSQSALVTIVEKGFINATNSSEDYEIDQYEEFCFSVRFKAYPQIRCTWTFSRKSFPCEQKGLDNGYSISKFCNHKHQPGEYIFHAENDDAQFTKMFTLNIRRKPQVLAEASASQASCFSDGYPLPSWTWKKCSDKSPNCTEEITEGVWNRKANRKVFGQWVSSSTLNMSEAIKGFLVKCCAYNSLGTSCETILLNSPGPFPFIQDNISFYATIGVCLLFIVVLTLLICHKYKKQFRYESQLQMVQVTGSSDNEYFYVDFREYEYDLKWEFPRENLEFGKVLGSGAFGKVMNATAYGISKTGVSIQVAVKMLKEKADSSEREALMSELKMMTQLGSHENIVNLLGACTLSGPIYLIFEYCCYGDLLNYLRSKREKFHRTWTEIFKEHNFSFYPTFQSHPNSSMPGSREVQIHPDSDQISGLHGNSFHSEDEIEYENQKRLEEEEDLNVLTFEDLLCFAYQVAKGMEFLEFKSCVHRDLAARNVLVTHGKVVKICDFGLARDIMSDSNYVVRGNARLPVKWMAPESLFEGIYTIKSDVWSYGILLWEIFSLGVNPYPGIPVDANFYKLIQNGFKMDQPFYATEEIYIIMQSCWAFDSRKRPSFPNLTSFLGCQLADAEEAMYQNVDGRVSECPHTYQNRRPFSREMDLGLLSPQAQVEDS
Kind of test: Inhibition of human N-terminal GST-tagged FLT3 cytoplasmic domain (564 to 993 residues) expressed in baculovirus expression system using 5-FAM-peptide 2 as substrate after 2 hrs by electrophoretic mobility shift assay in presence of ATP.

Test [10] addresses Mitogen-activated protein kinase 9 (Homo sapiens) (UniProt P45984). In words: Inhibition of human N-terminal GST-tagged JNK2 catalytic domain (1 to 364 residues) expressed in Escherichia coli using fluorescence labelled modified Erktide as substrate at 50 times IC50 by electrophoretic mobility shift assay relative to control.
Test [11] addresses Vascular endothelial growth factor receptor 2 (Homo sapiens) (UniProt P35968). In words: Inhibition of human N-terminal GST-tagged KDR cytoplasmic domain (790 to 1356 residues) expressed in baculovirus expression system using fluorescence labelled CSKtide as substrate at 50 times IC50 by electrophoretic mobility shift assay relative to control.
Test [12] has as its target Tyrosine-protein kinase Lck (Homo sapiens) (UniProt P06239). Kind of test: Inhibition of full length human N-terminal GST-tagged LCK (1 to 500 residues) expressed in baculovirus expression system using fluorescence labelled srctide as substrate at 50 times IC50 by electrophoretic mobility shift assay relative to control.

Regarding `O=C(Nc1ccc(CN2CCN(c3ccccc3)CC2)cc1)c1n[nH]c2ccccc12`, the inhibition in test [1] is 6%; in test [2] it was -4.3%; in test [3], -1%; in test [4], 0.5%; in test [5], 100%; in [6], -3.7%. Further, the inhibition was 0.6% in [7]; 32.6% in [8]; -1.1% in test [10]; 15.8% in test [11]; 1.8% in test [12]. In test [9], the half-maximal inhibitory concentration (IC50) came out at 10 nM.

With `O=C(Nc1ccc(C(=O)N2CCN(c3ccccc3)CC2)cc1)c1n[nH]c2ccccc12`, the inhibition is 3% in test [1]; -5% in test [2]; 6.3% in test [3]; 1.9% in [4]; 99.7% in [5]; 4.9% in test [6]. Also, the inhibition in [7] was determined as 2.5%; in test [8], 16.8%; in test [10], 9.3%; in test [11], 34.2%; in test [12], 1.8%. For the same compound, in [9], the 50% inhibitory concentration (IC50) worked out at 34 nM.

On to `O=C(Nc1ccccc1)c1n[nH]c2ccccc12`, for which the inhibition in test [1] is 3.1%; in test [2] it was -0.5%; in [3], 17%; in test [4] it was 18.2%; in test [5], 96.7%; in test [6], 51%. Besides, the inhibition in test [7] was determined as 6.1%; in test [8], 31.9%; in test [10], 24.5%; in test [11], 44.2%; in [12], 5.6%. Moreover, in test [9], the IC50 was determined as 417 nM.

As a reminder, the inhibition is the relative decrease from the control value, in per cent. In general, IC50 refers to the point on the concentration scale where inhibition reaches its midpoint.
